# How the values were obtained:
# [1] = molecular target: T1, REV-ERBα LBD (human; residues 281-614 Δ324-422) (Homo sapiens, UniProt P20393, DEL324-422); experiment: TR-FRET corepressor interaction assay (REV-ERBα LBD, FITC-SMRT peptide); assay type: biochemical; conditions: Table 2, read-out: REVERBα agonism (EC50 class, FRET assay)
# T1 construct: 6×Histag-REV-ERBα LBD (human; residues 281-614 Δ324-422); made in house; host or cells: Escherichia coli
# Summary of the method: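 Compound serial dilutions (in DMSO, triplicate) incubated 2 h at 4 °C; Tb donor excited at 340 nm, emission read at 495 nm and FITC acceptor at 520 nm. TR-FRET ratio (520/495 nm) plotted against ligand concentration and fitted to a sigmoidal dose-response curve.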
# [2] = molecular target: T2, REV-ERBβ (Homo sapiens, UniProt Q14995); experiment: TR-FRET corepressor interaction assay (REV-ERBβ, FITC-SMRT peptide); assay type: biochemical; conditions: Table 2, read-out: REVERBβ agonism (EC50 class, FRET assay)
# T2 construct: 6×Histag-REV-ERBα LBD (human; residues 381-579); made in house; host or cells: Escherichia coli
# T2 sequence (Q14995 381-579): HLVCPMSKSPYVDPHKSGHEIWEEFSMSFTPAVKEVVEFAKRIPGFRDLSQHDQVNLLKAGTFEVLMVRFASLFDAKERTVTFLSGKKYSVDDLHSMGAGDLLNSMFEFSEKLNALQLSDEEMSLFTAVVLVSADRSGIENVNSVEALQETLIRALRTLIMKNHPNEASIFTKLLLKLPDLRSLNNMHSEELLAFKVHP
# Procedure: TR-FRET corepressor interaction assay. The time-resolved fluorescence resonance energy transfer (TR-FRET) assay was performed in black low-volume 384-well plates (Greiner). […] Ligand stocks were prepared via serial dilution in DMSO, added to wells in triplicate, and plates were incubated at 4° C. for 2 h and read using a BioTek Synergy Neo multimode plate reader. The Tb donor was excited at 340 nm; its fluorescence emission was monitored at 495 nm, and the acceptor FITC emission was measured at 520 nm; and the TR-FRET ratio was calculated as the signal at 520 nm divided by the signal at 495 nm. Data were plotted using GraphPad Prism as TR-FRET ratio vs. ligand concentration and fit to sigmoidal dose response curve equation.
# Exemplary compounds of the present disclosure were assayed as described above to assess agonism of REV-ERBα and REV-ERBβ.
# T1 sequence (P20393 with tags, fused parts or gaps DEL324-422): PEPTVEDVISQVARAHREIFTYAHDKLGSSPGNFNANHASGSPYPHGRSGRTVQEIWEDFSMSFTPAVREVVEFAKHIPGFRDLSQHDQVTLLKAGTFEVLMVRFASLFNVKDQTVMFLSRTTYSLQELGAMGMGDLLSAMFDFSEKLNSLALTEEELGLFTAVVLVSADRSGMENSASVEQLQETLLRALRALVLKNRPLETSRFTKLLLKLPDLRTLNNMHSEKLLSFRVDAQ
# T1 sequence (Q9Y618 2335-2356 partner limits assumed): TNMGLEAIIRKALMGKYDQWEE
EC50 [1] [µM],EC50 [2] [µM],Structure (SMILES)
0.5 to 3,> 3,CC(C)Cn1cc(CCNS(=O)(=O)N(C)C)c2ccc(-c3ccnc(C(F)(F)F)c3)cc21 [Compound 17]
> 3,> 3,CC(C)Cn1cc(CCNS(=O)(=O)N(C)C)c2ccc(-c3cc[nH]c(=O)c3)cc21 [Compound 18]
< 0.5,> 3,CC(C)Cn1cc(CCNS(=O)(=O)N(C)C)c2ccc(-c3ccnc(Cl)c3)cc21 [Compound 20]
0.5 to 3,> 3,CC(C)Cn1cc(CCNS(=O)(=O)N(C)C)c2ccc(-c3ccnc(N)c3)cc21 [Compound 21]
< 0.5,> 3,"CC(C)Cn1cc(CCNS(=O)(=O)N(C)C)c2ccc(-c3cccnc3)cc21 [Compound 28, dimethyl({2-[1-(2-methylpropyl)-6-(pyridin-3-yl)-1H-indol-3-yl]ethyl}sulfamoyl)amine]"
0.5 to 3,> 3,"CC(C)Cn1cc(CCNS(=O)(=O)N(C)C)c2ccc(-c3cncnc3)cc21 [Compound 29, dimethyl({2-[1-(2-methylpropyl)-6-(pyrimidin-5-yl)-1H-indol-3-yl]ethyl}sulfamoyl)amine]"
0.5 to 3,> 3,"CC(C)Cn1cc(CCNS(=O)(=O)N(C)C)c2ccc(-c3ccccn3)cc21 [Compound 31, dimethyl({2-[1-(2-methylpropyl)-6-(pyridin-2-yl)-1H-indol-3-yl]ethyl}sulfamoyl)amine]"
0.5 to 3,> 3,"CC(C)Cn1cc(CCNS(=O)(=O)N(C)C)c2ccc(-c3ncccn3)cc21 [Compound 32, dimethyl({2-[1-(2-methylpropyl)-6-(pyrimidin-2-yl)-1H-indol-3-yl]ethyl}sulfamoyl)amine]"
> 3,> 3,"CC(C)Cn1cc(CCNS(=O)(=O)N(C)C)c2ccc(-c3cnn(C)c3)cc21 [Compound 33, dimethyl({2-[6-(1-methyl-1H-pyrazol-4-yl)-1-(2-methylpropyl)-1H-indol-3-yl]ethyl}sulfamoyl)amine]"
< 0.5,> 3,"CC(C)Cn1cc(CCNS(=O)(=O)N(C)C)c2ccc(-c3ccnn3C)cc21 [Compound 34, dimethyl({2-[6-(1-methyl-1H-pyrazol-5-yl)-1-(2-methylpropyl)-1H-indol-3-yl]ethyl}sulfamoyl)amine]"
< 0.5,> 3,"CC(C)Cn1cc(CCNS(=O)(=O)N(C)C)c2ccc(-c3cn[nH]c3)cc21 [Compound 35, dimethyl({2-[1-(2-methylpropyl)-6-(1H-pyrazol-4-yl)-1H-indol-3-yl]ethyl}sulfamoyl)amine]"
> 3,> 3,"CC(C)Cn1cc(CCNS(=O)(=O)N(C)C)c2ccc(-c3ccnc(N4CCOCC4)c3)cc21 [Compound 36, dimethyl({2-[1-(2-methylpropyl)-6-[2-(morpholin-4-yl)pyridin-4-yl]-1H-indol-3-yl]ethyl}sulfamoyl)amine]"
< 0.5,0.5 to 3,"CC(C)Cn1cc(CCNS(=O)(=O)N(C)C)c2ccc(-c3ccnc4ccccc34)cc21 [Compound 37, dimethyl({2-[1-(2-methylpropyl)-6-(quinolin-4-yl)-1H-indol-3-yl]ethyl}sulfamoyl)amine]"
> 3,> 3,"CC(C)Cn1cc(CCNS(=O)(=O)N(C)C)c2ccc(-c3cccc4cnccc34)cc21 [Compound 38, ({2-[6-(isoquinolin-5-yl)-1-(2-methylpropyl)-1H-indol-3-yl]ethyl}sulfamoyl)dimethylamine]"
< 0.5,> 3,"CC(C)Cn1cc(CCNS(=O)(=O)N(C)C)c2ccc(-c3cccc4ccccc34)cc21 [Compound 39, dimethyl({2-[1-(2-methylpropyl)-6-(naphthalen-1-yl)-1H-indol-3-yl]ethyl}sulfamoyl)amine]"
0.5 to 3,> 3,"CC(C)Cn1cc(CCNS(=O)(=O)N(C)C)c2ccccc21 [Compound 68, dimethyl({2-[1-(2-methylpropyl)-1H-indol-3-yl]ethyl}sulfamoyl)amine]"
< 0.5,0.5 to 3,"CC(C)Cn1cc(CCNS(=O)(=O)N(C)C)c2ccc(C(C)C)cc21 [Compound 91, dimethyl({2-[1-(2-methylpropyl)-6-(propan-2-yl)-1H-indol-3-yl]ethyl}sulfamoyl)amine]"
< 0.5,> 3,"CCCc1ccc2c(CCNS(=O)(=O)N(C)C)cn(CC(C)C)c2c1 [Compound 98, dimethyl({2-[1-(2-methylpropyl)-6-propyl-1H-indol-3-yl]ethyl}sulfamoyl)amine]"

EC50 [1] [µM],EC50 [2] [µM],Structure (SMILES)
< 0.5,0.5 to 3,"CC(C)Cn1cc(CCNS(=O)(=O)N(C)C)c2ccc(C3CCCC3)cc21 [Compound 99, ({2-[6-cyclopentyl-1-(2-methylpropyl)-1H-indol-3-yl]ethyl}sulfamoyl)dimethylamine]"
< 0.5,> 3,"CCc1ccc2c(CCNS(=O)(=O)N(C)C)cn(CC(C)C)c2c1 [Compound 100, ({2-[6-ethyl-1-(2-methylpropyl)-1H-indol-3-yl]ethyl}sulfamoyl)dimethylamine]"
< 0.5,0.5 to 3,CCC(C)n1cc(CCNS(=O)(=O)N(C)C)c2ccc(-c3ccncc3)cc21 (stereo not drawn) [Compound 230]
< 0.5,0.5 to 3,CC(C)CCn1cc(CCNS(=O)(=O)N(C)C)c2ccc(-c3ccncc3)cc21 [Compound 231]
< 0.5,> 3,CC(C)Cn1cc(CCNS(=O)(=O)C(C)C)c2cc(F)c(-c3ccccc3Cl)cc21 [Compound 262]
< 0.5,> 3,CC(C)Cn1cc(CCNS(=O)(=O)C(C)C)c2cc(F)c(-c3ccncc3Cl)cc21 [Compound 263]
< 0.5,> 3,CC(C)Cn1cc(CNS(=O)(=O)C(C)C)c2cc(F)c(-c3ccncc3)cc21 [Compound 265]
< 0.5,0.5 to 3,CC(C)(C)Cn1cc(CNS(=O)(=O)C2CC2)c2cc(F)c(-c3ccccc3C(F)(F)F)cc21 [Compound 278]
< 0.5,> 3,CC(C)(C)Cn1cc(CNS(=O)(=O)C2CC2)c2cc(F)c(-c3ccncc3Cl)cc21 [Compound 279]
< 0.5,> 3,O=S(=O)(NCc1cn(CC2(C(F)(F)F)CC2)c2cc(-c3ccncc3Cl)c(F)cc12)C1CC1 [Compound 286]
< 0.5,> 3,"CC(C)Cn1cc(CCNS(=O)(=O)N(C)C)c2ccc(-c3c(Cl)cccc3Cl)cc21 [Example 80, N-{2-[6-(2,6-dichlorophenyl)-1-(2-methylpropyl)-1H-indol-3-yl]ethyl}-N,N-dimethyl-sulfuric diamide]"
< 0.5,> 3,"CC(C)Cn1cc(CCNS(=O)(=O)N(C)C)c2ccc(C(F)(F)F)cc21 [Example 105, dimethyl({2-[1-(2-methylpropyl)-6-(trifluoromethyl)-1H-indol-3-yl]ethyl}sulfamoyl)amine]"
< 0.5,> 3,"Cc1cc2c(CCNS(=O)(=O)N(C)C)cn(CC(C)C)c2cc1C [Example 120, ({2-[5,6-dimethyl-1-(2-methylpropyl)-1H-indol-3-yl]ethyl}sulfamoyl)dimethylamine]"
0.5 to 3,> 3,"CC(C)Cn1cc(CCNS(=O)(=O)N(C)C)c2cccc(Br)c21 [Example 137, ({2-[7-bromo-1-(2-methylpropyl)-1H-indol-3-yl]ethyl}sulfamoyl)dimethylamine]"
< 0.5,> 3,"CC(C)C(=O)n1cc(C(C)NS(=O)(=O)N(C)C)c2ccc(-c3ccncc3)cc21 (stereo not drawn) [Example 180, 1-(3-{1-[(dimethylsulfamoyl)amino]ethyl}-6-(pyridin-4-yl)-1H-indol-1-yl)-2-methylpropan-1-one]"
< 0.5,0.5 to 3,"CC(C)C(=O)n1cc(C(C)NS(=O)(=O)N(C)C)c2ccc(-c3ccccc3C(F)(F)F)cc21 (stereo not drawn) [Example 195, 1-(3-{1-[(dimethylsulfamoyl)amino]ethyl}-6-[2-(trifluoromethyl)phenyl]-1H-indol-1-yl)-2-methylpropan-1-one]"
< 0.5,0.5 to 3,"Cc1c(-c2ccncc2)ccc2c(CCNS(=O)(=O)N(C)C)cn(C(=O)C(C)C)c12 [Example 199, 1-(3-{2-[(dimethylsulfamoyl)amino]ethyl}-7-methyl-6-(pyridin-4-yl)-1H-indol-1-yl)-2-methylpropan-1-one]"
< 0.5,> 3,"Cc1c(-c2ccncc2)ccc2c(CCNS(=O)(=O)N(C)C)cn(CC(C)C)c12 [Example 200, dimethyl({2-[7-methyl-1-(2-methylpropyl)-6-(pyridin-4-yl)-1H-indol-3-yl]ethyl}sulfamoyl)amine]"
